Data taken from patent US20250171431A1, “HETEROCYCLIC INHIBITORS OF IGF-1R FOR TREATMENT OF DISEASE” (HORIZON THERAPEUTICS IRELAND DAC, priority 2023, published 2025).

What follows are molecules tested against IGF-1R (Homo sapiens (Human), UniProt P08069) (assay: Example B-1: IGF-1R Assay (PC3 cells, IGF1 stimulation, AlphaLISA)). Settings: 200 ng/mL IGF1 stimulation, read-out: Biological Activity against IGF-1R IC50.
Format: cell-based
Summary of the method: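 PC3 cells were serum-starved 2 h, treated with serially diluted compounds for 2 h, then stimulated with IGF1 (200 ng/mL final) for 30 min. Lysates were read by AlphaLISA; % inhibition was calculated relative to vehicle and EC80 controls, with IC50 values binned into ranges.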

IGF-1R, sequence (P08069 31-1367): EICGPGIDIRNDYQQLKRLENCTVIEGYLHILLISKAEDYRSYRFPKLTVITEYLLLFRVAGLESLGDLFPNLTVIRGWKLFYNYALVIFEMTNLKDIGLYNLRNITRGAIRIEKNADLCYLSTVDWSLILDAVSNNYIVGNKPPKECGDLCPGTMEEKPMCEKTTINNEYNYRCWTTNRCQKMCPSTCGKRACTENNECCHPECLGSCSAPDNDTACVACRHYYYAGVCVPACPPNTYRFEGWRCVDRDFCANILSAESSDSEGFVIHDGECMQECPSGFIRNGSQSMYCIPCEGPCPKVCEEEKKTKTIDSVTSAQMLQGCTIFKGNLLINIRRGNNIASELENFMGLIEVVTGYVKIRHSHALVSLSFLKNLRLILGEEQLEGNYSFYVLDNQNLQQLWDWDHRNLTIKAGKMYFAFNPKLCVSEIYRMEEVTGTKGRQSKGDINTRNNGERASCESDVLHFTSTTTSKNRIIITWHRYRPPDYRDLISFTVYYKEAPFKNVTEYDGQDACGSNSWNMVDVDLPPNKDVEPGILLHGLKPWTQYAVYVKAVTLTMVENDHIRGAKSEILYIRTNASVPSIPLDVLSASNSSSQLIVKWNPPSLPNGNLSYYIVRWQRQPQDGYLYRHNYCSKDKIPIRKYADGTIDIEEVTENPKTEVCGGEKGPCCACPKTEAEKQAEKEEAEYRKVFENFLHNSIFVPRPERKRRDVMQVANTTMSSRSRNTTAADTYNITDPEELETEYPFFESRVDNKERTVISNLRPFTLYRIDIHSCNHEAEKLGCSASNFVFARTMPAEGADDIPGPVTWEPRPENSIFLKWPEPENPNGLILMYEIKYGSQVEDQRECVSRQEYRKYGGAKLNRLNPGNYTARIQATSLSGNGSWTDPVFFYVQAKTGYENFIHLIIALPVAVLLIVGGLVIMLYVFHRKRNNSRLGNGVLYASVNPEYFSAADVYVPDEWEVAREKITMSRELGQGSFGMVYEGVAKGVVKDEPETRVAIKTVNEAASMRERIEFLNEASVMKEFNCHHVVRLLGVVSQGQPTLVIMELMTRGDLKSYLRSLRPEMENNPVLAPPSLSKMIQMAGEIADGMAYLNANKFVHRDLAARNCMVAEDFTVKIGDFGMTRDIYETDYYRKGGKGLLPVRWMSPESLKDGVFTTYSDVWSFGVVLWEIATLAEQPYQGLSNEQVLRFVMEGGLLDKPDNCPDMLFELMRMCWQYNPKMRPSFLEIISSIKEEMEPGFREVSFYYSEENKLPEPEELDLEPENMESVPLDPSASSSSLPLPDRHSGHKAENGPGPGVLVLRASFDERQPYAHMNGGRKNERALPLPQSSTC

First: COc1cc(Nc2nccc(Nc3cnc4c(c3)OCCC4)n2)ccc1OCCCN1CCCCC1 [Compound 383, 4-(3,4-dihydro-2H-1-oxa-5-azanaphth-7-ylamino)-2-[3-methoxy-4-(3-piperidinopropoxy)phenylamino]pyrimidine]
Second: COc1cc(Nc2nccc(Nc3cnc4c(c3)CS(=O)(=O)CC4)n2)ccc1OCCCN1CCCCC1 [Compound 391, 3-{2-[3-methoxy-4-(3-piperidinopropoxy)phenylamino]-4-pyrimidinylamino}-5,6,7,8-tetrahydro-6H,6H-6λ^6-thia-1-azanaphthalene-6,6-dione]
The IC50 of the first is lower: at most 500 nM for the first, 2000 to 10000 nM for the second. The first is the more potent here.

`COc1cc(Nc2nccc(Nc3cnc4c(c3)COC(C)(C)C4)n2)ccc1OCCCN1CCCCC1` [Compound 385, 4-(7,7-dimethyl-7,8-dihydro-5H-6-oxa-1-azanaphth-3-ylamino)-2-[3-methoxy-4-(3-piperidinopropoxy)phenylamino]pyrimidine] and `COc1cc(Nc2nccc(Nc3cnc4c(c3)C(C)(C)OC(C)(C)C4)n2)ccc1OCCCN1CCCCC1` [Compound 386, 2-[3-methoxy-4-(3-piperidinopropoxy)phenylamino]-4-(5,5,7,7-tetramethyl-7,8-dihydro-5H-6-oxa-1-azanaphth-3-ylamino)pyrimidine] fall in the same range of IC50: 500 to 2000 nM for the first, 500 to 2000 nM for the second.

`COc1cc(Nc2nccc(Nc3cnc4c(c3)OC(C)CO4)n2)ccc1OCCCN1CCCCC1` (stereo not shown) [Compound 387, 2-[3-methoxy-4-(3-piperidinopropoxy)phenylamino]-4-(2-methyl-2,3-dihydro-1,4-dioxa-5-aza-7-naphthylamino)pyrimidine] and `COc1cc(Nc2nccc(Nc3cnc4c(c3)OCCO4)n2)ccc1OCCCN1CCOCC1` [Compound 389, 4-(2,3-dihydro-1,4-dioxa-5-aza-7-naphthylamino)-2-[3-methoxy-4-(3-morpholinopropoxy)phenylamino]pyrimidine] cannot be ordered by IC50: at most 500 nM for the first, at most 500 nM for the second.

`c1cc(Nc2cnc3c(c2)OCCO3)nc(Nc2ccc(OCCCN3CCOCC3)cc2)n1` [Compound 388, 4-(2,3-dihydro-1,4-dioxa-5-aza-7-naphthylamino)-2-[p-(3-morpholinopropoxy)phenylamino]pyrimidine] and `c1ccc2ncc(Nc3ccnc(Nc4ccc(OCCCN5CCOCC5)cc4)n3)cc2c1` [Compound 394, 2-[p-(3-morpholinopropoxy)phenylamino]-4-(3-quinolylamino)pyrimidine] cannot be ordered by IC50: at most 500 nM for the first, at most 500 nM for the second.

`O=S1(=O)CCc2ncc(Nc3ccnc(Nc4ccc(OCCCN5CCOCC5)cc4)n3)cc2C1` [Compound 390, 3-{2-[p-(3-morpholinopropoxy)phenylamino]-4-pyrimidinylamino}-5,6,7,8-tetrahydro-6H,6H-6λ^6-thia-1-azanaphthalene-6,6-dione] and `Clc1ccc2ncc(Nc3ccnc(Nc4ccc(OCCCN5CCOCC5)cc4)n3)cc2c1` [Compound 401, 4-(6-chloro-3-quinolylamino)-2-[p-(3-morpholinopropoxy)phenylamino]pyrimidine] cannot be ordered by IC50: 500 to 2000 nM for the first, at most 500 nM for the second.

`COc1cc(Nc2nccc(Nc3cnc4c(F)c(F)ccc4c3)n2)ccc1OCCCN1CCCCC1` [Compound 393, 4-(7,8-difluoro-3-quinolylamino)-2-[3-methoxy-4-(3-piperidinopropoxy)phenylamino]pyrimidine] and `COc1cc(Nc2nccc(Nc3cnc4cccc(F)c4c3)n2)ccc1OCCCN1CCCCC1` [Compound 423, 4-(5-fluoro-3-quinolylamino)-2-[3-methoxy-4-(3-piperidinopropoxy)phenylamino]pyrimidine] cannot be ordered by IC50: at most 500 nM for the first, at most 500 nM for the second.

First: FC(F)(F)c1ccc2cc(Nc3ccnc(Nc4ccc(OCCCN5CCOCC5)cc4)n3)cnc2c1 [Compound 395, 2-[p-(3-morpholinopropoxy)phenylamino]-4-[7-(trifluoromethyl)-3-quinolylamino]pyrimidine]
Second: Cc1ccc2cc(Nc3ccnc(Nc4ccc(OCCCN5CCOCC5)cc4)n3)cnc2c1 [Compound 407, 4-(7-methyl-3-quinolylamino)-2-[p-(3-morpholinopropoxy)phenylamino]pyrimidine]
The IC50 of the first is higher: 2000 to 10000 nM for the first, 500 to 2000 nM for the second. The second is the more potent here.

Compared with `N#Cc1ccc2ncc(Nc3ccnc(Nc4ccc(OCCCN5CCOCC5)cc4)n3)cc2c1` [Compound 396, 3-{2-[p-(3-morpholinopropoxy)phenylamino]-4-pyrimidinylamino}-6-quinolinecarbonitrile], `Oc1ccc2ncc(Nc3ccnc(Nc4ccc(OCCCN5CCOCC5)cc4)n3)cc2c1` [Compound 414, 3-{2-[p-(3-morpholinopropoxy)phenylamino]-4-pyrimidinylamino}-6-quinolinol] is lower in IC50: 2000 to 10000 nM for the first, at most 500 nM for the second. The second is the more potent here.

First: CCc1ccc2cc(Nc3ccnc(Nc4ccc(OCCCN5CCOCC5)cc4)n3)cnc2c1 [Compound 397, 4-(7-ethyl-3-quinolylamino)-2-[p-(3-morpholinopropoxy)phenylamino]pyrimidine]
Second: Oc1ccc2cc(Nc3ccnc(Nc4ccc(OCCCN5CCOCC5)cc4)n3)cnc2c1 [Compound 408, 3-{2-[p-(3-morpholinopropoxy)phenylamino]-4-pyrimidinylamino}-7-quinolinol]
The IC50 of the first is higher: 2000 to 10000 nM for the first, at most 500 nM for the second.

Compared with `O=S1(=O)CCN(CCCOc2ccc(Nc3nccc(Nc4cnc5c(Cl)cccc5c4)n3)cc2)CC1` [Compound 398, 4-(3-{p-[4-(8-chloro-3-quinolylamino)-2-pyrimidinylamino]phenoxy}propyl)-1λ^6,4-thiazinane-1,1-dione], `O=S1(=O)CCN(CCCOc2ccc(Nc3nccc(Nc4cnc5cc(Cl)ccc5c4)n3)cc2)CC1` [Compound 399, 4-(3-{p-[4-(7-chloro-3-quinolylamino)-2-pyrimidinylamino]phenoxy}propyl)-1λ^6,4-thiazinane-1,1-dione] is higher in IC50: at most 500 nM for the first, 2000 to 10000 nM for the second.

First: COc1ccc2cc(Nc3ccnc(Nc4ccc(OCCCN5CCS(=O)(=O)CC5)cc4)n3)cnc2c1 [Compound 400, 4-(3-{p-[4-(7-methoxy-3-quinolylamino)-2-pyrimidinylamino]phenoxy}propyl)-1λ^6,4-thiazinane-1,1-dione]
Second: COc1ccc2cc(Nc3ccnc(Nc4ccc(OCCCN5CCOCC5)cc4)n3)cnc2c1 [Compound 406, 4-(7-methoxy-3-quinolylamino)-2-[p-(3-morpholinopropoxy)phenylamino]pyrimidine]
The IC50 of the first is lower: 500 to 2000 nM for the first, 2000 to 10000 nM for the second. The first is the more potent here.

`c1ccc2ncc(Nc3ccnc(Nc4ccc(OCCCN5CCCCC5)c(OCC5CCCO5)c4)n3)cc2c1` (stereo not shown) [Compound 402, 2-{4-(3-piperidinopropoxy)-3-[(tetrahydro-2-furyl)methoxy]phenylamino}-4-(3-quinolylamino)pyrimidine] and `c1ccc2ncc(Nc3ccnc(Nc4ccc(OCCCN5CCCCC5)c(OCC5CCOCC5)c4)n3)cc2c1` [Compound 418] cannot be ordered by IC50: at most 500 nM for the first, at most 500 nM for the second.

`Fc1ccc2cc(Nc3ccnc(Nc4ccc(OCCCN5CCOCC5)cc4)n3)cnc2c1F` [Compound 403, 4-(7,8-difluoro-3-quinolylamino)-2-[p-(3-morpholinopropoxy)phenylamino]pyrimidine] and `Clc1ccc2cc(Nc3ccnc(Nc4ccc(OCCCN5CCOCC5)cc4)n3)cnc2c1` [Compound 410, 4-(7-chloro-3-quinolylamino)-2-[p-(3-morpholinopropoxy)phenylamino]pyrimidine] fall in the same range of IC50: 2000 to 10000 nM for the first, 2000 to 10000 nM for the second.

`FC(F)(F)Oc1cccc2cc(Nc3ccnc(Nc4ccc(OCCCN5CCOCC5)cc4)n3)cnc12` [Compound 404, 2-[p-(3-morpholinopropoxy)phenylamino]-4-(8-trifluoromethoxy-3-quinolylamino)pyrimidine] and `FC(F)(F)c1cccc2cc(Nc3ccnc(Nc4ccc(OCCCN5CCOCC5)cc4)n3)cnc12` [Compound 415, 2-[p-(3-morpholinopropoxy)phenylamino]-4-[8-(trifluoromethyl)-3-quinolylamino]pyrimidine] fall in the same range of IC50: 2000 to 10000 nM for the first, 2000 to 10000 nM for the second.

`c1cc(Nc2cnc3cc(C4CC4)ccc3c2)nc(Nc2ccc(OCCCN3CCOCC3)cc2)n1` [Compound 405, 4-(7-cyclopropyl-3-quinolylamino)-2-[p-(3-morpholinopropoxy)phenylamino]pyrimidine] and `Brc1ccc2cc(Nc3ccnc(Nc4ccc(OCCCN5CCOCC5)cc4)n3)cnc2c1` [Compound 409, 4-(7-bromo-3-quinolylamino)-2-[p-(3-morpholinopropoxy)phenylamino]pyrimidine] fall in the same range of IC50: 2000 to 10000 nM for the first, 2000 to 10000 nM for the second.

Compared with `CS(=O)(=O)c1ccc2ncc(Nc3ccnc(Nc4ccc(OCCCN5CCOCC5)cc4)n3)cc2c1` [Compound 411, 4-(6-mesyl-3-quinolylamino)-2-[p-(3-morpholinopropoxy)phenylamino]pyrimidine], `Clc1cccc2cc(Nc3ccnc(Nc4ccc(OCCCN5CCOCC5)cc4)n3)cnc12` [Compound 416, 4-(8-chloro-3-quinolylamino)-2-[p-(3-morpholinopropoxy)phenylamino]pyrimidine] is lower in IC50: 2000 to 10000 nM for the first, at most 500 nM for the second.

`COc1cc(Nc2nccc(Nc3cnc4c(Cl)cccc4c3)n2)ccc1OCCCN1CCOCC1` [Compound 413, 4-(8-chloro-3-quinolylamino)-2-[3-methoxy-4-(3-morpholinopropoxy)phenylamino]pyrimidine] and `COc1cccc2cc(Nc3ccnc(Nc4ccc(OCCCN5CCOCC5)cc4)n3)cnc12` [Compound 417, 4-(8-methoxy-3-quinolylamino)-2-[p-(3-morpholinopropoxy)phenylamino]pyrimidine] cannot be ordered by IC50: at most 500 nM for the first, 500 to 2000 nM for the second.

`COc1cc(Nc2nccc(Nc3cnc4ccc(C(F)(F)F)cc4c3)n2)ccc1OCCCN1CCOCC1` [Compound 419, 2-[3-methoxy-4-(3-morpholinopropoxy)phenylamino]-4-[6-(trifluoromethyl)-3-quinolylamino]pyrimidine] and `COc1cc(Nc2nccc(Nc3cnc4ccc(Br)cc4c3)n2)ccc1OCCCN1CCCCC1` [Compound 421, 4-(6-bromo-3-quinolylamino)-2-[3-methoxy-4-(3-piperidinopropoxy)phenylamino]pyrimidine] cannot be ordered by IC50: at most 500 nM for the first, at most 500 nM for the second.

With `COc1cc(Nc2nccc(Nc3cnc4cccc(Cl)c4c3)n2)ccc1OCCCN1CCCCC1` [Compound 422, 4-(5-chloro-3-quinolylamino)-2-[3-methoxy-4-(3-piperidinopropoxy)phenylamino]pyrimidine] the IC50 was at most 500 nM.
